Reference: patent publication US20260232662A1, “MIR-124 INDUCER, AND PREPARATION METHOD THEREFOR AND USE THEREOF” (NANJING SYNNOCARE PHARMACEUTICAL TECHNOLOGY CO., LTD., priority 2023, published 2026)

System: miR-124
Test: Induction of miR-124 expression in PBMC cells (qPCR)
Type: cell-based
Details: Homo sapiens, 72 h, 0.1 μM compound, human PBMCs stimulated with PMA/ionomycin, miR-191 reference gene, read-out: miR-124 expression, Fold change vs DMSO
Method: This study evaluated the ability of the compound of the present invention to influence miR-124 transcriptional activity in vitro. The experiment analyzed miR-124 expression in human PBMCs (Sailybio) using quantitative PCR (qPCR).
Thawed human PBMCs (1 mL) were added to 19 mL of culture medium (RPMI1640+10% hFBS+1‰ 2-mercaptoethanol) and the PBMCs were incubated in a cell culture incubator for 30 minutes. The PBMCs were collected and the cells (3.0*10^6 cells/well/3 mL) were resuspended in medium containing PMA (10 ng/mL; Invivogen) and ionomycin (200 ng/mL; Invivogen). The cells were incubated in a 6-well plate for 48 hours. Diluted compound was added to the cells to achieve a final concentration of 0.1 μM. After 72 hours, the samples were centrifuged and the cells were collected.
Total miRNA was extracted from the cells using the MiPure Cell/Tissue miRNA Kit (Vazyme) according to the manufacturer's instructions, followed by purification. The purified samples were treated with genomic DNA elimination buffer, and reverse transcription was performed using a GeneAmp PCR System. The resulting cDNA was subjected to quantitative real-time PCR (qPCR) analysis on a QuantStudio™ 7 Flex Real-Time PCR System. Data analysis was performed using the QuantStudio 7 software with default settings to automatically determine Ct values, and the results were exported. In this assay, miR-191 was used as the reference gene, and the DMSO-treated group served as the control. The relative expression of miR-124 was calculated using the following formula: […]

Compared with `Fc1cc(Cl)cc2nc(Nc3ccc(OC(F)(F)F)c(Cl)c3)c3nccn3c12` [Compound B89, 7-chloro-9-fluoro-N-(3-chloro-4-(trifluoromethoxy)phenyl) imidazolo[1,2-a] quinoxalin-4-amine], `FC(F)(F)c1ccc(Nc2nc3cc(Cl)cc(Cl)c3n3ccnc23)cc1Cl` [Compound B98, 7,9-dichloro-N-(3-chloro-4-(trifluoromethyl)phenyl) imidazolo[1,2-a] quinoxalin-4-amine] is higher in fold induction at 0.1 µM: 22.3 for the first, 22.9 for the second.

Going from `FC(F)(F)Oc1ccc(NC2=Nc3c(Br)cccc3N3CCN=C23)cc1` [Compound 79] to `Fc1cccc2c1N=C(Nc1ccc(OC(F)(F)F)cc1)C1=NCCN12` [Compound 73], the fold induction at 0.1 µM falls from 17.8 to 8.59.

Going from `FS(F)(F)(F)(F)c1ccc(Nc2nc3c(Cl)cccc3n3ccnc23)cc1` [Compound 22] to `FC(F)Oc1ccc(Nc2nc3c(Cl)cccc3n3ccnc23)cc1` [Compound 21], the fold induction at 0.1 µM rises from 15.3 to 15.5.

First: Fc1cc(Nc2nc3c(Cl)cccc3n3ccnc23)ccc1C(F)(F)F [Compound 28]
Second: Fc1cc(Nc2nc3c(Cl)cc(Cl)cc3n3ccnc23)ccc1C(F)(F)F [Compound 63]
The fold induction at 0.1 µM of the first is lower: 10.4 for the first, 18.4 for the second.

First: Fc1cc(Cl)cc2c1nc(Nc1ccc(OC(F)(F)F)cc1)c1nccn12 [Compound 54]
Second: Fc1cc(Cl)cc2c1nc(Nc1ccc(C(F)(F)F)cc1)c1nccn12 [Compound 58]
The fold induction at 0.1 µM of the first is lower: 14.9 for the first, 27.3 for the second.

Going from `Fc1cc(NC2=Nc3ccc(Cl)cc3N3CCN=C23)ccc1C(F)(F)F` [Compound B146, 8-chloro-N-(3-Fluoro-4-(trifluoromethyl)phenyl)-1,2-dihydroimidazo[1,2-a] quinoxalin-4-amine] to `Fc1cc(NC2=Nc3cccc(Cl)c3N3CCN=C23)ccc1C(F)(F)F` [Compound B122, 9-chloro-N-(3-fluoro-4-(trifluoromethyl)phenyl)-1,2-dihydroimidazo[1,2-a] quinoxalin-4-amine], the fold induction at 0.1 µM falls from 28.7 to 27.3.

Going from `Fc1cc(F)c2c(c1)nc(Nc1ccc(OC(F)(F)F)cc1)c1nccn12` [Compound B30, 7,9-difluoro-N-(4-(trifluoromethoxy)phenyl)imidazolo [1,2-a]quinoxalin-4-amine] to `Fc1cc(Br)cc2nc(Nc3ccc(OC(F)(F)F)cc3)c3nccn3c12` [Compound B32, 7-bromo-9-fluoro-N-(4-(trifluoromethoxy)phenyl)imidazolo [1,2-a]quinoxalin-4-amine], the fold induction at 0.1 µM falls from 22.5 to 19.7.

Going from `Fc1cccc2nc(Nc3ccc(OC(F)(F)F)cc3)c3nccn3c12` [Compound B2, 9-fluoro-N-(4-(trifluoromethoxy)phenyl)imidazolo [1,2-a]quinoxalin-4-amine] to `Fc1cccc2nc(Nc3ccc(C(F)(F)F)cc3)c3nccn3c12` [Compound B78, 9-fluoro-N-(4-(trifluoromethyl)phenyl) imidazolo[1,2-a] quinoxalin-4-amine], the fold induction at 0.1 µM falls from 37.4 to 14.9.

Compared with `FC(F)(F)Oc1ccc(Nc2nc3ccc(Br)c(Cl)c3n3ccnc23)cc1` [Compound B18, 8-bromo-9-chloro-N-(4-(trifluoromethoxy)phenyl)imidazolo [1,2-a]quinoxalin-4-amine], `Fc1ccc2nc(Nc3ccc(OC(F)(F)F)cc3)c3nccn3c2c1Cl` [Compound B17, 9-chloro-8-fluoro-N-(4-(trifluoromethoxy)phenyl)imidazolo [1,2-a]quinoxalin-4-amine] is higher in fold induction at 0.1 µM: 22.6 for the first, 31.9 for the second.

Compared with `Fc1cccc2c1N=C(Nc1ccc(C(F)(F)F)cc1)C1=NCCN12` [Compound 74], `FC(F)(F)Oc1ccc(NC2=Nc3ccc(Cl)cc3N3CCN=C23)cc1` [Compound B142, 8-chloro-N-(4-(trifluoromethoxy)phenyl)-1,2-dihydroimidazo[1,2-a] quinoxalin-4-amine] is lower in fold induction at 0.1 µM: 31.6 for the first, 25.6 for the second.

First: Fc1cc(Nc2nc3cc(Cl)ccc3n3ccnc23)ccc1C(F)(F)F [Compound B110, 7-chloro-N-(3-fluoro-4-(trifluoromethyl)phenyl) imidazolo[1,2-a] quinoxalin-4-amine]
Second: Fc1cc2nc(Nc3ccc(OC(F)(F)F)cc3)c3nccn3c2cc1Cl [Compound B25, 8-chloro-7-fluoro-N-(4-(trifluoromethoxy)phenyl)imidazolo [1,2-a]quinoxalin-4-amine]
The fold induction at 0.1 µM of the first is higher: 25.5 for the first, 23.4 for the second.

First: Fc1cc(Nc2nc3c(Br)cccc3n3ccnc23)ccc1OC(F)(F)F [Compound 49]
Second: FC(F)(F)Oc1ccc(Nc2nc3cc(Br)cc(Cl)c3n3ccnc23)cc1 [Compound B23, 7-bromo-9-Chloro-N-(4-(trifluoromethoxy)phenyl)imidazolo [1,2-a]quinoxalin-4-amine]
The fold induction at 0.1 µM of the first is lower: 19.5 for the first, 25.2 for the second.

First: Fc1cc(NC2=Nc3cccc(Cl)c3N3CCN=C23)ccc1OC(F)(F)F [Compound B119, 9-chloro-N-(3-fluoro-4-(trifluoromethoxy)phenyl)-1,2-dihydroimidazo[1,2-a] quinoxalin-4-amine]
Second: Fc1cc(Cl)cc2c1N1CCN=C1C(Nc1ccc(OC(F)(F)F)c(Cl)c1)=N2 [Compound B132, 7-chloro-N-(3-chloro-4-(trifluoromethoxy)phenyl)-9-fluoro-1,2-dihydroimidazo[1,2-a] quinoxalin-4-amine]
The fold induction at 0.1 µM of the first is lower: 25.4 for the first, 27.6 for the second.

Compared with `FC(F)(F)Sc1ccc(Nc2nc3cccc(Cl)c3n3ccnc23)cc1` [Compound B50, 9-chloro-N-(4-(trifluoromethylthio)phenyl)imidazolo [1,2-a]quinoxalin-4-amine], `FC(F)(F)c1ccc(Nc2nc3c(Cl)cccc3n3ccnc23)nc1` [Compound 34] is lower in fold induction at 0.1 µM: 21.3 for the first, 14.7 for the second.

Compared with `Cn1c(=O)c(Nc2ccc(C(F)(F)F)cc2)nc2c(Cl)cccc21` [Compound 11], `Cn1c(=O)c(Nc2ccc3c(c2)OC(F)(F)O3)nc2c(F)cc(Cl)cc21` [Compound 14] is higher in fold induction at 0.1 µM: 18.4 for the first, 24.7 for the second.

Going from `Fc1cccc2nc(Nc3ccc4c(c3)OC(F)(F)O4)c3nccn3c12` [Compound B75, 9-fluoro-N-(2,2-difluorobenzo[d] [1,3]dihydroxy-5-yl) imidazolo[1,2-a] quinoxalin-4-amine] to `Fc1cc(Cl)cc2nc(Nc3ccc4c(c3)OC(F)(F)O4)c3nccn3c12` [Compound B87, 7-chloro-9-fluoro-N-(2,2-difluorobenzo[d] [1,3]dihydroxy-5-yl)imidazo[1,2-a] quinoxalin-4-amine], the fold induction at 0.1 µM falls from 29.5 to 15.8.

Going from `FC1(F)Oc2ccc(Nc3nc4cc(Cl)cc(Cl)c4n4ccnc34)cc2O1` [Compound B93, 7,9-dichloro-N-(2,2-difluorobenzo [d][1,3]dihydroxy-5-yl) imidazolo[1,2-a] quinoxalin-4-amine] to `FC(F)(F)Oc1ccc(NC2=Nc3c(Cl)cc(Cl)cc3N3CCN=C23)cc1Cl` [Compound 87], the fold induction at 0.1 µM falls from 19.1 to 15.8.

Compared with `Fc1cc(Cl)cc2c1N1CCN=C1C(Nc1ccc(OC(F)(F)F)cc1)=N2` [Compound B130, 7-chloro-9-fluoro-N-(4-(trifluoromethoxy)phenyl)-1,2-dihydroimidazo[1,2-a] quinoxalin-4-amine], `FC(F)(F)Oc1ccc(NC2=Nc3ccc(Cl)cc3N3CCN=C23)cc1Cl` [Compound B144, 8-chloro-N-(3-chloro-4-(trifluoromethoxy)phenyl)-1,2-dihydroimidazo[1,2-a] quinoxalin-4-amine] is higher in fold induction at 0.1 µM: 25.6 for the first, 27.8 for the second.
